Results from patent US20160221974A1, “SODIUM CHANNEL MODULATORS FOR THE TREATMENT OF PAIN AND DIABETES” (CHROMOCELL CORPORATION, priority 2013, published 2016).

Columns and labels:
hNaV1.7 = molecular target: T1, hNaV1.7 (Homo sapiens, UniProt Q15858); assay: FDSS Membrane Potential In-Vitro Assay; format: cell-based; details: stimulation with veratridine and scorpion venom, read-out: NaV1.7 IC50
T1 construct: expressed in transfected cells

NaV1.7 = molecular target: T2, NaV1.7 (Homo sapiens, UniProt Q15858); assay: Patchliner Electrophysiological In-Vitro Assay (NaV1.7); format: cell-based; details: Patchliner patch clamp, HEK293, holding at V1/2
T2 construct: expressed in transfected cells
T2 sequence (Q15858 whole entry): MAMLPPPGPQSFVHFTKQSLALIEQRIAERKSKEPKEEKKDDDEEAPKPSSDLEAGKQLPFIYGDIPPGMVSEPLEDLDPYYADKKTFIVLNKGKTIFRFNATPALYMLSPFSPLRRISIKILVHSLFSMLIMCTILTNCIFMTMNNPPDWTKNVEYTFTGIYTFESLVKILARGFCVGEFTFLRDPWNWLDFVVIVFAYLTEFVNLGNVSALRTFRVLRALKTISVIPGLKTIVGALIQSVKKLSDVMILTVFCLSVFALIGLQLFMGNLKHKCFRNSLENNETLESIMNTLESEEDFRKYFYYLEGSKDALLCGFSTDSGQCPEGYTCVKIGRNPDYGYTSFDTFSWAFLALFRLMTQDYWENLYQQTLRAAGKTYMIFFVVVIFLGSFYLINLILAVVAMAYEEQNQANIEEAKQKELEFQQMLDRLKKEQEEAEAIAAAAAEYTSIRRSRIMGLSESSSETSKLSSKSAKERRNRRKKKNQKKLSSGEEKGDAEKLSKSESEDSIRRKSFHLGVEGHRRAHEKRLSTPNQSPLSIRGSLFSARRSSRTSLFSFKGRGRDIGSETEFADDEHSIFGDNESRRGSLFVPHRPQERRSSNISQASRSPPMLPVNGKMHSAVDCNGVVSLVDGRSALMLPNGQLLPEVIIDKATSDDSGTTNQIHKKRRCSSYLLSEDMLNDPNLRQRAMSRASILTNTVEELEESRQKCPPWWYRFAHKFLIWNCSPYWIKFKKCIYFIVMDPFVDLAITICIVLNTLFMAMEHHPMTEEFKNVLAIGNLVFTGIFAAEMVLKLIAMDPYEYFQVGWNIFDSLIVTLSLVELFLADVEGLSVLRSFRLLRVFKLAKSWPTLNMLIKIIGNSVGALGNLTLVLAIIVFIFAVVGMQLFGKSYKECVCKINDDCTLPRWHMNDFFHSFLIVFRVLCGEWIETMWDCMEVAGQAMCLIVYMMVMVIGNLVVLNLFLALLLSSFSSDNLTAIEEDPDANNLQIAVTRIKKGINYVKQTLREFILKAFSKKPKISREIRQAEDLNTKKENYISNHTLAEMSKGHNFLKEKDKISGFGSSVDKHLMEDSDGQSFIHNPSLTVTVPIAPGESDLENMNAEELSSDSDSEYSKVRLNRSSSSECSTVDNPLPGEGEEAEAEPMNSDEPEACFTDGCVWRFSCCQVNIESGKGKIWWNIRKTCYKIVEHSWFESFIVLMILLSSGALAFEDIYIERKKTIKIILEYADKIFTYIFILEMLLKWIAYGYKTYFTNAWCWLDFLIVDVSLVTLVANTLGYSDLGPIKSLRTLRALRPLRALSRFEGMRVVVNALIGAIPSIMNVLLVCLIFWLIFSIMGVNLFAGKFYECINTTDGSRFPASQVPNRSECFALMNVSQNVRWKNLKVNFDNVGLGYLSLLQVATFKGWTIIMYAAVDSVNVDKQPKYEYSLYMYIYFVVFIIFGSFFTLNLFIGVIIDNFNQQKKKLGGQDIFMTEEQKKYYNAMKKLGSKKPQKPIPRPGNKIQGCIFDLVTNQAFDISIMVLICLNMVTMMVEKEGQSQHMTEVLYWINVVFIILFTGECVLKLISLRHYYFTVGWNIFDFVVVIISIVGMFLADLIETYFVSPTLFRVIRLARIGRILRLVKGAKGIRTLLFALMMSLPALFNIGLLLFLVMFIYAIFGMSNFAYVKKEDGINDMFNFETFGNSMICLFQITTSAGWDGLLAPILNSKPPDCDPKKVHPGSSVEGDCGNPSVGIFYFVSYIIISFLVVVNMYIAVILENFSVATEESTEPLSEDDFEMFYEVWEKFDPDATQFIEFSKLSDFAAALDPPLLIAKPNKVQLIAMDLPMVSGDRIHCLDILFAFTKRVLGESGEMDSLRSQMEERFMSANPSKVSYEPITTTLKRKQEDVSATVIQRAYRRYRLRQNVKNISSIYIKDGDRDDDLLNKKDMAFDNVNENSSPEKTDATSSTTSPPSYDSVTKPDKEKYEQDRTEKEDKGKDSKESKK
T2 sequence (Q07699 19-218 partner): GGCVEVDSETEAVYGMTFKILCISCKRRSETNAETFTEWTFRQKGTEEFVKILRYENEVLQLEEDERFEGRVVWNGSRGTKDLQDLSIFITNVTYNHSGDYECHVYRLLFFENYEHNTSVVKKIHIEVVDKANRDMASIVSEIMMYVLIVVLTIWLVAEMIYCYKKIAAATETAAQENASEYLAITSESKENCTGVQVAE
T2 sequence (O60939 30-215 partner): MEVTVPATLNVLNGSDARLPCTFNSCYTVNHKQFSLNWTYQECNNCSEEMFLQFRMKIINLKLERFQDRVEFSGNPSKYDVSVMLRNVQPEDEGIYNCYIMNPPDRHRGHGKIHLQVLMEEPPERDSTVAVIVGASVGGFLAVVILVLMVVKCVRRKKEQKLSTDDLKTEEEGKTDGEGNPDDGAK
Method in brief: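 Automated whole-cell patch clamp at room temperature on HEK293 cells stably expressing hNav1.7 with β1 and β2 subunits. Inactivated-state Ki: cells held at their own V1/2, stepped to −120 mV for 5–10 ms, then to Vmax for 10–20 ms, repeated every 10 s; dose-dependent inhibition analysed.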

CYP3A4 = molecular target: T3, CYP3A4 (Homo sapiens, UniProt P08684); assay: In-Vitro Cytochrome P450 (CYP450) Inhibition Assay (Vivid CYP450); format: in vitro ADME; details: CYP3A4 enzyme complex (Vivid CYP450, Invitrogen), 6 μM test concentration
T3 construct: purchased Invitrogen
T3 sequence (P08684 2-503 limits assumed): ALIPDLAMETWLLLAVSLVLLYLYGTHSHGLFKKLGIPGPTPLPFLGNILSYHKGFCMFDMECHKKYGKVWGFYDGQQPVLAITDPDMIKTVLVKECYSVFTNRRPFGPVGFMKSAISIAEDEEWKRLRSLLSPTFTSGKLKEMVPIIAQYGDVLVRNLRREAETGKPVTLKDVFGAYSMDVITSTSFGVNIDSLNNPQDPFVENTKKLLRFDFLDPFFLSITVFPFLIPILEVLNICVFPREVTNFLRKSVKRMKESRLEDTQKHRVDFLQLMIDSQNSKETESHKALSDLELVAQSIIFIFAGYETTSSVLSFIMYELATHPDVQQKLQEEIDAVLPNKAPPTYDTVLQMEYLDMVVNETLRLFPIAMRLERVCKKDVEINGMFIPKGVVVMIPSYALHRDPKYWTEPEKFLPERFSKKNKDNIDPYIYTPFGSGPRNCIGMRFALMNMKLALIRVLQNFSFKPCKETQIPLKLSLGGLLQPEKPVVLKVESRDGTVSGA
Method: We evaluated interaction of drug candidates with cytochrome P450 enzymes which are a major determinant of drug clearance via oxidative metabolism using a high throughput compatible, fluorescence based CYP450 screening assay (Vivid® CYP450, Invitrogen) according to manufacturer's directions.
In brief, test compounds at four different concentrations (μM—6.0, 2.0, 0.7, 0.2), a positive control (Ketoconazole) and a solvent control were incubated at room temperature in unique wells of a 96-well microtiter plate with CYP3A4 enzyme complex for 20 minutes. A pre-read fluorescence (Ex−485 nm/Em−530 nm) was measured at the start of the incubation using a Tecan Safire^2 microplate reader-monochromator to determine background fluorescence. At the end of the incubation period, enzyme substrate and co-enzyme were added and the reaction was kinetically monitored for 1 hour by measuring fluorescence every minute. Effect of test compounds on inhibition of CYP3A4 metabolism of provided substrate was determined by calculating the ratio of the effective reaction rate in presence of test compound to that in the absence of inhibitor.

[1] = tested on: Formalin Test (pain behaviors); assay: Formalin Test (pain behaviors); format: in vivo, rat; details: relative to vehicle control; 75 mg/kg, oral route
[2] = tested on: Partial Sciatic Nerve Ligation (PSNL) model; assay: Partial Sciatic Nerve Ligation (PSNL) model, behavioral tests; format: in vivo, male Sprague-Dawley rats
Description: 250-350 g male Sprague-Dawley rats from appropriate animal resources were anesthetized with 2.5% isoflurane. A hind leg was shaved, and the skin was sterilized with 0.5% iodine and 75% alcohol. All surgical instruments were sterilized before surgery and between animals. An incision (1 cm) was made at the middle of the thigh in parallel with the muscle and sciatic nerve distribution. The muscle was exposed and dissected at the joint of two muscles (biceps femoris) indicated by the light colored (white) fascia line. The sciatic nerve was just beneath the muscle and was hooked out using an 18-20 G feeding needle (90 degree curved); the sciatic nerve was flat on the feeding needle and approximately one-half the diameter of the nerve is tightly ligated with 7-0 silk suture. A response of the injured leg twitch indicates the success of ligation. After checking hemostasis, bupivicaine 0.1-0.2 ml (0.125%) was given at the incision area, the muscle and the adjacent fascia are closed with 5-0 absorbable sutures. The skin was sutured with absorbable suture and tissue glue. The control group using sham surgery animals (about 8-10 animals) underwent the same surgical procedure but with no nerve ligation. Animals were returned to their home cage after recovery from anesthesia.
The analgesic effect of the test compound was expressed as a percent recovery (% Recovery) relative to the sham control group baseline and calculated according to the formula:
% Recovery=100%−{[(sham mean−test compound mean)/(sham mean−vehicle mean)]×100%}
wherein “sham mean” refers to average score in the sham-operated group; “test compound mean” refers to average score in the PSNL-group (animals with partial sciatic nerve ligation) or diabetic group (animals treated with STZ) treated with a test compound; “vehicle mean” refers to average score in the PSNL-group or diabetic group treated with vehicle only. The above formula was used to obtain data for the following in vivo behavioral tests.
The following behavioral tests were conducted (i.e., plantar test, paw pressure test, and von Frey test) started on day 3 and thereafter once weekly following surgery or use of a diabetic inducer. […]
(§1) Rats were placed on the glass surface of a thermal testing apparatus (Model 336, IITC/Life Science Instruments, Woodland Hills, Calif.) and were allowed to acclimate for 10 min before testing on the glass surface at room temperature. […] The paw withdrawal latency was recorded by a digital timer. The thermal threshold was determined as the mean withdrawal latency from two to three consecutive trials of both hindpaws. […]
Animals were placed under clear plastic boxes above a wire mesh floor, which allowed full access to the paws. […] Mechanical paw withdrawal thresholds (PWTs) were measured with the up-down testing paradigm. […]

[3] = tested on: Acetic Acid Writhing Model; assay: Writhing Model (Inflammatory Abdominal Pain), rats; format: in vivo; details: relative to vehicle control, doses of 10 to 30 mg/kg intraperitoneal route
Method: The Acetic Acid Writhing Model is associated with visceral pain (abdominal pain, such as stomach pain, and pain caused by, for example, bile duct congestion and kidney stones). A writhing test assesses acute peritoneovisceral pain. After acclimation of 2-3 days, a test compound, positive control or vehicle control was administered by intraperitoneal injection (i.p.) or by oral gavage 15-30 minutes prior to administration of acetic acid. The time of administration of test compound was recorded. For mice: Method A: 0.6% Acetic acid solution in saline was injected i.p. in a volume of 10 ml/kg; Method B: 1.2% Acetic acid solution in saline was injected i.p. in a volume of 5 ml/kg. For rats: 4% acetic acid in saline was injected i.p in a volume of 2 ml/kg at T=0 minutes. Each animal was placed in a clear plastic cage. At T=5 minutes, the number of writhing movements was counted over a 45 minute period. Alternatively, the writhing movements were counted over a 5-minute period and repeated every 5 minutes, starting at T=5 minutes over a 45-minute period. For each compound tested, the individual score was obtained by calculating the accumulated writhing movements for the time period studied. […]

[4] = tested on: streptozotocin (STZ)-induced diabetic model; assay: Streptozotocin (STZ)-Induced Model of Diabetic Neuropathy, behavioral tests; format: in vivo, male Sprague-Dawley rats; details: 30 mg/kg, measured 30 minutes post dose
Method: 250-350 g male Sprague-Dawley rats from appropriate animal resources were used. Type I diabetes was induced by a single injection, (intraperitoneally, intravenously or intramuscularly) of 50-100 mg/kg of streptozotocin (STZ, Sigma Chemicals, St. Louis, Mo. or VWR) freshly dissolved in sodium citrate (0.01 M, pH 4.5). Sham animals were given either saline or same vehicle injection. Following a wait time of about two days, inducement of diabetes was confirmed in STZ-injected rats by measuring the plasma glucose concentrations in blood samples from the tail vein after a fast of 6 hours. […] Other parameters (water intake, food intake, and bodyweight) were monitored before the treatment with a test compound and after the cessation of the treatment.
The analgesic effect of the test compound was expressed as a percent recovery (% Recovery) relative to the sham control group baseline and calculated according to the formula: […]
as §1

[5] = 30 mg/kg intraperitoneal, measured 30-60 minutes post dose

T1 sequence (Q15858 whole entry): as the sequence (Q15858 whole entry) above
T1 sequence (Q07699 19-218 partner): as the sequence (Q07699 19-218 partner) above
T1 sequence (O60939 30-215 partner): as the sequence (O60939 30-215 partner) above

Row | Structure (SMILES) | IC50 (hNaV1.7) | IC50 (NaV1.7) | inhibition at 1 hour, 6 µM (CYP3A4) | reduction in pain response (formalin assay phase 2) [1] | reduction in pain response (formalin assay, phase 1) [1] | effect in the tactile allodynia test [2, 5] | reduction in pain (writhing) [3] | effect in the tactile allodynia test [4] | effect in the tactile allodynia test ([2]; oral route, relative to vehicle control, measured 30 minutes post dose)
1 | O=C(O)CCNC(=O)c1cc(-c2cc(Cl)ccc2Oc2cc(F)c(S(=O)(=O)Nc3ncns3)cc2Cl)ccn1 [Compound 1, 3-(4-(2-(4-(N-(1,2,4-thiadiazol-5-yl)sulfamoyl)-2-chloro-5-fluorophenoxy)-5-chlorophenyl)picolinamido)propanoic acid] | < 130 nM | < 100 nM | 50 to 100% | 17% | 14% | no significant effect |  |  | 
2 | O=C(O)CNC(=O)c1cc(-c2cc(Cl)ccc2Oc2cc(F)c(S(=O)(=O)Nc3ncns3)cc2Cl)ccn1 [Compound 2, 2-(4-(2-(4-(N-(1,2,4-thiadiazol-5-yl)sulfamoyl)-2-chloro-5-fluorophenoxy)-5-chlorophenyl)picolinamido)acetic acid] | < 130 nM | < 100 nM | 50 to 100% |  |  | no significant effect | 48-58% |  | 
3 | O=C(O)CCNCCCc1cc(Cl)ccc1Oc1cc(F)c(S(=O)(=O)Nc2cscn2)cc1Cl [Compound 15, 3-((3-(5-chloro-2-(2-chloro-5-fluoro-4-(N-(thiazol-4-yl)sulfamoyl)phenoxy)phenyl)propyl)amino)propanoic acid] | 130 to 1000 nM | < 100 nM | 0 to 25% |  |  |  |  | no significant effect | 
4 | C#CCN(CCCc1cc(Cl)ccc1Oc1cc(F)c(S(=O)(=O)Nc2nccs2)cc1Cl)CC(=O)O [Compound 54, 2-((3-(5-chloro-2-(2-chloro-5-fluoro-4-(N-(thiazol-2-yl)sulfamoyl)phenoxy)phenyl)propyl)(prop-2-yn-1-yl)amino)acetic acid] |  |  |  |  |  |  |  |  | no significant effect
